Test results reported in US4318917A, “Antiinflammatory 2,3-diaryl-5-[2,2,2-trifluoro-1-(trifluoromethyl]ethyl-1H-pyrroles” (E. I. Du Pont de Nemours and Company, priority 1981, dated 1982).

System: adjuvant-induced arthritis in rats
Test: Established Adjuvant-Induced Arthritis in Rats (paw volume)
Assay type: in vivo, rat (Charles River Lewis male rats)
Conditions: oral gavage, 7 daily doses; for ED50: Rattus norvegicus, uninjected left hind paw, established adjuvant arthritis, read-out: Adjuvant Arthritis ED50 (ED50% decrease from control paw volume)
Method: A procedure for detecting and comparing the antiinflammatory activity of compounds in this series and standard drugs for which there is a good correlation with human efficacy is the adjuvant-induced arthritis test in rats.
The test procedure employed for determining antiinflammatory activity is described below.
Established Adjuvant-Induced Arthritis in Rats
Charles River Lewis male rats (130-150 grams) are injected subcutaneously in plantar area of the right hind paw with 0.1 ml of adjuvant (Difco heat-killed, lyophilized Mycobacterium butyricum suspended in mineral oil 5 mg/ml). 20 Non-arthritic controls are injected with mineral oil. The animals are held for 2 weeks to allow development of arthritis. Paw volumes (uninjected, left hind paw) are measured and the adjuvant injected rats are culled and distributed to treatment groups of 10 of equal disease severity. Non-arthritic controls are distributed to 2 groups of 10. The rats are given oral doses of compound or PVA-Acacia (Polyvinyl Alcohol 1%, Gum Acacia, U.S.P. 5%, Methylparaben 0.5%) (10 ml/kg) by gavage on that day and on the 6 following days. One day after the last dose the paw volumes (uninjected, left hind paw) are measured using a Ugo Basile Volume Differential Meter Model 7101. [formula]
% Decrease from Control Mean Paw Volume.
Dose-response regression lines of the % decrease are plotted on semi-log paper by visual fit and the ED50% decrease from control paw volume is determined by inspection.

| SMILES | ED50 | other results |
| --- | --- | --- |
| FC(F)(F)C(c1cc(-c2ccccc2)c(-c2ccccc2)[nH]1)C(F)(F)F [Example 1, 2,3-Diphenyl-5-[2,2,2-trifluoro-1-(trifluoromethyl)-ethyl]-1H-pyrrole] | 11 mg/kg |  |
| Fc1ccc(C2=CC(=C(C(F)(F)F)C(F)(F)F)N=C2c2ccc(Br)cc2)cc1 [Example 18, 5-(4-bromophenyl)-4-(4-fluorophenyl)-2-[2,2,2-trifluoro-1-(trifluoromethyl)ethylidene]-2H-pyrrole] |  | percent reduction in paw volume at the indicated dose (at 25 mg/kg): 16% |
| Fc1ccc(-c2cc(C(C(F)(F)F)C(F)(F)F)[nH]c2-c2ccc(F)cc2)cc1 [Example 2, 2,3-Bis(4-fluorophenyl)-5-[2,2,2-trifluoro-1-(trifluoromethyl)ethyl]-1H-pyrrole] | 4 mg/kg |  |
| CSc1ccc(-c2[nH]c(C(C(F)(F)F)C(F)(F)F)cc2-c2ccc(F)cc2)cc1 [Example 6] | 2.5 mg/kg |  |
| Fc1ccc(-c2cc(C(C(F)(F)F)C(F)(F)F)[nH]c2-c2cccnc2)cc1 [Example 5] |  | percent reduction in paw volume at the indicated dose (at 5 mg/kg): 0% |
| Fc1ccc(-c2cc(C(C(F)(F)F)C(F)(F)F)[nH]c2-c2ccc(Br)cc2)cc1 [Example 4] | 3.9 mg/kg |  |
| FC(F)(F)C(c1cc(-c2ccc(Cl)cc2)c(-c2ccc(Cl)cc2)[nH]1)C(F)(F)F [Example 3] | 15 mg/kg |  |
| Fc1ccc(C2=CC(=C(C(F)(F)F)C(F)(F)F)N=C2c2ccc(F)cc2)cc1 [Example 17, 4,5-Bis(4-fluorophenyl)-2-[2,2,2-trifluoro-1-(trifluoromethyl)ethylidene]-2H-pyrrole] | 33 mg/kg |  |
